Measurements published in PubChem BioAssay AID624300 (Southern Research Specialized Biocontainment Screening …, 2012).

Test system: HeLa viability, CellTiter-Glo luminescence, 24 h
Test: viability loss in HeLa cells – cytotoxicity control for MgcRacGAP inhibitor project, dose response (AID 624300)

C#CCOCCOCCOCCNc1nc(N2CCN(C(=O)CCCCCCCCCCNC(=O)[C@@H](CCSC)n3cc(CCO)nn3)CC2)nc(N2CCN(C(=O)CCCCCCCCCCNC(=O)[C@H](CO)n3cc(CCCCCN)nn3)CC2)n1
CC50: 85.3 µM
